Reference: US5670520A, “Method for inhibiting virus replication in mammalian cells using carbostyil derivatives” (Otsuka Pharmaceutical Co., Ltd., priority 1996, dated 1997)
Converted amounts (≈) assume the structure as drawn.

Columns and labels:
CHO cells [1] = assay: Rapid uptake of [3H]thymidine / [3H]AZT in CHO cells; details: 0-250 μM vesnarinone, 1 min
Experimental: Then, 1.0 μCi/ml of [^3 H]thymidine (6.7 Ci/mmol) or 1.0 μCi/ml of [^3 H]AZT (14 Ci/mmol) was added, and the mixture was immediately layered on silicone oil/paraffin oil (96:6) in microfuge tubes. […] The water and oil phases were discarded, and radioactivity of the cell pellets was measured using liquid scintillation counting.

CMV strain AD169 = assay: CMV plaque reduction assay in MRC5 cells; format: cell-based; details: Human betaherpesvirus 5, AD169, MRC5, 168 h
Experimental: More specifically, subconfluent monolayers of MRC5 cells (Biowhittaker, Walkersville, Md.) in 12-well tissue culture plates were exposed to a suspension of a 1:500 dilution of stock virus (CMV strain AD169; ATCC No. VR-538) in Eagles Minimal Essential Medium (MEM) supplemented with 2.0% (v/v) fetal bovine serum, for 2 hr at 37° C. to allow for virus absorption. The fluid containing unabsorbed virus was then removed, and the cell layer rinsed with Eagles MEM without serum.
The minimum compound concentration that reduces plaque production by 50% (MIC50) was calculated from single compound assays by using a regression analysis program for semilog curve fitting.
The following formula of additivity, which is appropriate for inhibitors affecting different sites, was used.

CHO cells [2] = assay: Rescue of CHO cells from cytostatic effects of 5-FUd; format: cell-based, Chinese hamster; details: 50 nM 5-FUd, 120 hrs; 0-250 μM vesnarinone or 1.0-10 μM dipyridamole
Text: Nucleoside transport inhibitors, such as dipyridamole or NBMPR, are known to rescue cell proliferation from the cytotoxic effects of 5-fluorouridine(5-FUd) or high dose thymidine, by inhibiting transport of this cytotoxic nucleoside analog or thymidine (Aronow et al, Mol. Cell Biol., 6:2957-2962 (1986)).

[3] = 31 μg/ml vesnarinone in overlay medium
U937 cells = assay: Intracellular AZT-MP, AZT-DP, AZT-TP in U937 cells by HPLC; details: vesnarinone 75 μM (30 μg/ml); [3H]AZT 2 hr
Experimental: 1.0 ml fractions were collected, and the radioactivity was measured by liquid scintillation. The retention time for AZT and AZT-MP was confirmed using cold AZT and AZT-MP (Sigma) under the same conditions.
Intracellular concentrations of [^3 H]AZT-MP, [^3 H]AZT-DP, and [^3 H]AZT-TP were measured using HPLC as described above.

[4] = some patients; cited from earlier work
human T cells = assay: Cellular DNA content by flow cytometry (propidium iodide); format: cell-based; details: within 48 hrs; 250 μM vesnarinone, 15 nM aphidicolin or 100 μM deferoxamine
Experimental: Next, cellular DNA content was evaluated over the 0-120 hrs treatment period. More specifically, 10^6 T cells treated in the same manner as described above, were fixed with 70% (v/v) ethanol at 4° C. overnight, centrifuged and washed with phosphate buffered saline (PBS). The fixed cells were incubated with 0.5 ml of 0.25 mg/ml ribonuclease (Sigma, St. Louis, Mo.) in PBS at 37° C. for 10 min. The cell suspension was mixed with 0.5 ml of a 50 μg/ml propidium iodide (Calbiochem, La Jolla, Calif.) solution in PBS, and after 60 min analyzed by flow cytometry (EPICS Profile, Coulter, Hialeah, Fla.), collecting red fluorescence (>600 nm) with 488 nm excitation.

ZEBRA, R, EA-R, EA-D = assay: Western immunoblot of EBV early antigens in Akata cells; format: cell-based, Epstein-Barr virus; details: 30 μg/ml vesnarinone
Experimental: 1 hr after release and transfer, the above-described anti-IgG antibody was added at a concentration of 50 μg/ml. 3 hrs and 20 hrs after treatment with the anti-IgG, the cells were harvested for the detection of EBV early antigens ZEBRA (BZLF1 product) by Western immunoblot.
More specifically, cells were washed with PBS, and then lysed at 4° C. in a buffer comprising 25 mM Tris-HCl (pH 7.4), 50 mM NaCl, 0.5% (w/v) sodium deoxycholate, 2.0% (v/v) Nonidet P-40, 0.2% (w/v) SDS, 1.0 mM phenyl-methane sulfonyl fluoride (PMSF), 10 μg/ml aprotinin, 10 μM leupeptin, and 100 μM sodium orthovanadate. After centrifugation, lysates were prepared for electrophoresis as described by Laemmli, Nature, 227:680-685 (1970). An amount of lysate equivalent to 4.0×10^5 cells was used for each immunoblot analysis.
After electrophoretic transfer of proteins to nitrocellulose filters and blocking the filters with 20 mM Tris-HCl (pH 8.0), 125 mM NaCl, 0.1% (v/v) Tween-20, 2.0% (w/v) BSA, and 0.1% (w/v) sodium azide, the filters were incubated with the appropriate primary antibody. For detection of ZEBRA (EB1, BZLF1 gene product), the antibody used was mouse monoclonal anti-EB1 (Z-125); for the detection of R (BRLF1 product), the antibody used was the mouse monoclonal anti-R (R5A9, provided by Dr. Evelyn Manet); for the detection of EA-R (BHRF1 product), monoclonal anti-EA-R (5B11, provided by Dr. Elliott Kieff) (Pearson et al, Virol., 160:151-161 (1987); and Henderson et al, Proc. Natl. Acad. Sci. USA, 90:8479-8483 (1993)), and for the detection of EA-D (BMRF1 product), the antibody used with the mouse monoclonal anti-EA-D (NEA-9240, DuPont, Boston, Mass. (Pearson et al, J. Virol., 47:193-201 (1983); and Kiehl et al, Virol., 184:330-340 (1991))).
Specific reactive bands were detected using anti-mouse secondary antibodies conjugated to alkaline phosphatase (Promega, Madison, Wis.) or horseradish peroxidase (Amersham) or ECL chemiluminescence (Amersham). That is, for detection of ZEBRA and R, alkaline phosphatase was used. For detection of EA-R and EA-D, horseradish peroxidase and the ECL chemiluminescence method was used (Amersham). Development was by the conventional methods, employing the colorogenic substrates bromochloroindolyl phosphate and nitroblue tetrazolium for alkaline phosphatase. The expression of ZEBRA reached a plateau level 3 hrs after stimulation and productive replication of EBV ceased 12 hrs after stimulation in this system.

COc1ccc(C(=O)N2CCN(c3ccc4c(c3)CCC(=O)N4)CC2)cc1OC [vesnarinone, 3,4-dihydro-6-[4-(3,4-dimethoxybenzoyl)-1-piperazinyl]-2(1H)-quinoline]
uptake of [3H]AZT (CHO cells [1]): the uptake of [^3 H]AZT was not affected by vesnarinone
uptake of [3H]thymidine (CHO cells [1]): inhibits the uptake of [^3 H]thymidine in a dose-dependent manner
inhibition at 30 µg/mL (CMV strain AD169; read-out: efficacy against CMV plaque formation): 91.5%
EC50 (CMV strain AD169; single compound assay, regression analysis, read-out: MIC50 (minimum concentration that reduces plaque production by 50%)): 24 µg/mL (≈ 60.7 µM)
reversal of cytostatic effects of 5-FUd (cell number) (CHO cells [2]): demonstrated a similar ability to rescue the cells in a dose-dependent manner
precipitate observed in culture [3]: A small amount of precipitate was observed at 31 μg/ml of vesnarinone
increase of intracellular AZT-DP (U937 cells): 45%
increase of intracellular AZT-MP (U937 cells): 100%
major side effect in patients [4]: agranulocytosis, a major side effect of vesnarinone observed in some patients
entry into S and G2/M phases (cellular DNA content) (human T cells): a certain proportion of the cells entered both S and G2/M phases of the cell cycle
expression of ZEBRA (BZLF1) (ZEBRA, R, EA-R, EA-D; 3 hrs after anti-IgG): suppressed 3 hrs after stimulation with anti-IgG to a limited extent
expression of EA-R (BHRF1) (ZEBRA, R, EA-R, EA-D; 3 hrs and 20 hrs): expressed to the same degree 3 hrs and 20 hrs after stimulation
expression of R (BRLF1) (ZEBRA, R, EA-R, EA-D; 3 hrs and 20 hrs): expressed virtually at the same level in the presence or absence of vesnarinone
expression of EA-D (BMRF1) (ZEBRA, R, EA-R, EA-D; 20 hrs after stimulation): dramatically suppressed in the presence of vesnarinone
